From PMC5692573 (Proceedings of the National Academy of Sciences of the …, 2017) come the findings set out here.

Test [1] deals with Kif18A (Homo sapiens, UniProt Q8NI77). The test is described as follows: cryo-EM reconstruction. The format is binding.
In test [2] the target is αβ-tubulin heterodimer (in paclitaxel-stabilized microtubules, or as curved tubulin in rings). The test is described as follows: cryo-EM 2D class averages.

Turning to `Nc1ncnc2c1ncn2[C@@H]1O[C@H](CO[P@](=O)(O)O[P@](=O)(O)NP(=O)(O)O)[C@@H](O)[C@H]1O` [AMPPNP], the “cryo-EM reconstruction (~6 Å) of MT-bound Kif18A_MDNL with AMPPNP” value in test [1] was “In the presence of AMPPNP, the nucleotide-binding site is clearly occupied by the bound nucleotide”.

B1: Kif18A_MDNL, monomeric human Kif18A motor-neck linker construct (domain or fragment)
chain: MSVTEEDLCHHMKVVVRVRPENTKEKAAGFHKVVHVVDKHILVFDPKQEEVSFFHGKKTTNQNVIKKQNKDLKFVFDAVFDETSTQSEVFEHTTKPILRSFLNGYNCTVLAYGATGAGKTHTMLGSADEPGVMYLTMLHLYKCMDEIKEEKICSTAVSYLEVYNEQIRDLLVNSGPLAVREDTQKGVVVHGLTLHQPKSSEEILHLLDNGNKNRTQHPTDMNATSSRSHAVFQIYLRQQDKTASINQNVRIAKMSLIDLAGSERASTSGAKGTRFVEGTNINRSLLALGNVINALADSKRKNQHIPYRNSKLTRLLKDSLGGNCQTIMIAAVSPSSVFYDDTYNTLKYANRAKDIKSSLKSNVLNVNNHITQYV
Take B1: the stoichiometry N in test [2] was found to be 1.
